Patent US20120029177A1, “HETEROCYCLE-AMINO ACID DERIVATIVES FOR TARGETING CANCER TISSUE AND RADIOACTIVE OR NON-RADIOACTIVE LABELED COMPOUNDS THEREOF” (SNU R&DB FOUNDATION, priority 2009, published 2012)
Blank lines part the entries; values can stand above or below the molecule they belong to.

Key:
U87MG cells = assay: In vitro cell uptake, U87MG (FIG. 1a); assay type: cell-based, human; conditions: controls ^68Ga-DOTA, ^68Ga-NOTA
Protocol: Human colon cancer cell line SNU-C4 was purchased from Korea Cell Line Bank (KCLB). Human thyroid cell line ARO, human liver cancer cell line Hep3B, human glioma cell line U251MG and U87MG, and mouse colon cell line CT-26 were purchased from American Type Culture Collection (ATCC). SNU-C4 and ARO were culture in RPMI1640 (Welgene Inc., Korea) and Hep3B, U251 MG, U87MG, and CT-26 were cultured in DMEM (Welgene Inc., Korea). Penicillin, streptomycin and amphotericin B (10,000 IU/mL, 10 mg/mL and 25 μg/mL, respectively, Mediatech Inc., U.S.A.) 1% mixture and fetal bovine serum (Welgene Inc., Korea) were added to all cell culture media. Cell culture was done in 37° C. incubator with supply of 5% CO2.
About 1.8×10^5 cells/mL CT-26 and 1.2×10^5 cells/mL U87MG were put into 24-well incubation plate and incubated for 20 hr. When the each well was about 80% confluent with cells, 296 kBq/0.5 mL of ^68Ga labeled agent was added to each well. Culture supernatants were discarded at each time point and cells were washed with ice-cooled Hank's balanced salt solution (HBSS, pH7.3, Gibco, U.S.A.) 2 times. The cells were dissolved by 0.5% sodium dodecylsulfate (SDS), recovered and counted using a gamma counter (Packard, Can berra Co., U.S.A.). Total protein amount in each sample was measured by bicinchonic acid (BCA, Pierce, U.S.A.) method.

[1] = test system: SNU-C4 xenografted nude mice; assay: Biodistribution study in SNU-C4 xenografted nude mice after intravenous injection; assay type: in vivo, mouse; conditions: for % ID/g Tumor: SNU-C4 tumor; for tumor uptake compared with the control heterocyclic compound (in words): SNU-C4 xenografted nude mice, 10 min to 2 hr
Protocol: Human colon cancer cell line SNU-C4 was cultured in RPMI1640 media containing 10% fetal bovine serum and harvested using trypsin. The cells were washed using 10 mL PBS and centrifugation at 3,000 rpm. Each nude mouse was injected with 2×10^5 cells/0.1 mL on the right shoulder subcutaneously. On 13 days post-injection, each 10 μCi/0.1 mL of ^68Ga labeled agent was injected into the xenografted mice through the tail vein. The injected mice were sacrificed at 10 min, 30 min, 1 hr, and 2 hr, cancer, blood, muscle, heart, liver, spleen, stomach, intestine, and bone were obtained, weighed, and their radioactivities were counted. The results were expressed as percentages of injected dose per gram tissue (% ID/g).

[2] = test system: SNU-C4 xenografted nude mice; assay: PET imaging of tumor xenografted mice; assay type: in vivo, mouse; conditions: PET at 1 and 2 hr post-injection, FIG. 2
Protocol: Human colon cancer cell line SNU-C4 was cultured in RPMI1640 media containing 10% fetal bovine serum and harvested using trypsin. The cells were washed using 10 mL PBS and centrifugation at 3,000 rpm. Each nude mouse was injected with 2×10^5 cells/0.1 mL on the right shoulder subcutaneously. On 14 days post-injection, each 10 μCi/0.1 mL of ^68Ga labeled agent was injected into the xenografted mice through the tail vein. The injected mice were anesthetized using 2% isoflurane, PET images were obtained at 1 and 2 hr post-injection using rodent R4, microPET scanner (Concorde Microsystem Inc.). The images were analyzed using ASIPro software (Concorde Microsystem Inc.).

Hep3B cells = assay: In vitro cell uptake, Hep3B (FIG. 1c); assay type: cell-based, human; conditions: control ^68Ga-NOTA
[3] = 10 min after intravenous injection
[4] = 30 min after intravenous injection
[5] = 1 hr after intravenous injection
[6] = 2 hr after intravenous injection

% ID/g Tumor [1, 3]: 3.33 ± 0.58 % ID/g
% ID/g Tumor [1, 4]: 2.23 ± 0.64 % ID/g
% ID/g Tumor [1, 5]: 0.93 ± 0.22 % ID/g
% ID/g Tumor [1, 6]: 0.66 ± 0.25 % ID/g
% ID/g Blood [1, 3]: 7.87 ± 1.11 % ID/g
% ID/g Blood [1, 4]: 2.63 ± 0.11 % ID/g
% ID/g Blood [1, 5]: 1.30 ± 0.28 % ID/g
% ID/g Blood [1, 6]: 0.65 ± 0.11 % ID/g
% ID/g Bone [1, 3]: 2.52 ± 0.64 % ID/g
% ID/g Bone [1, 4]: 1.20 ± 0.17 % ID/g
% ID/g Bone [1, 5]: 0.90 ± 0.12 % ID/g
% ID/g Bone [1, 6]: 0.70 ± 0.26 % ID/g
% ID/g Heart [1, 3]: 2.19 ± 0.47 % ID/g
% ID/g Heart [1, 4]: 0.78 ± 0.07 % ID/g
% ID/g Heart [1, 5]: 0.43 ± 0.10 % ID/g
% ID/g Heart [1, 6]: 0.15 ± 0.05 % ID/g
% ID/g Intestine [1, 3]: 1.91 ± 0.48 % ID/g
% ID/g Intestine [1, 4]: 0.74 ± 0.11 % ID/g
% ID/g Intestine [1, 5]: 0.52 ± 0.10 % ID/g
% ID/g Intestine [1, 6]: 0.40 ± 0.10 % ID/g
% ID/g Kidney [1, 3]: 50.94 ± 18.62 % ID/g
% ID/g Kidney [1, 4]: 44.79 ± 11.99 % ID/g
% ID/g Kidney [1, 5]: 67.43 ± 16.10 % ID/g
% ID/g Kidney [1, 6]: 48.79 ± 20.36 % ID/g
% ID/g Liver [1, 3]: 1.57 ± 0.22 % ID/g
% ID/g Liver [1, 4]: 0.80 ± 0.12 % ID/g
% ID/g Liver [1, 5]: 0.56 ± 0.06 % ID/g
% ID/g Liver [1, 6]: 0.39 ± 0.10 % ID/g
% ID/g Muscle [1, 3]: 2.12 ± 0.64 % ID/g
% ID/g Muscle [1, 4]: 0.90 ± 0.11 % ID/g
% ID/g Muscle [1, 5]: 0.47 ± 0.16 % ID/g
% ID/g Muscle [1, 6]: 0.14 ± 0.03 % ID/g
% ID/g Spleen [1, 3]: 1.64 ± 0.26 % ID/g
% ID/g Spleen [1, 4]: 0.74 ± 0.10 % ID/g
% ID/g Spleen [1, 5]: 0.47 ± 0.04 % ID/g
% ID/g Spleen [1, 6]: 0.33 ± 0.08 % ID/g
% ID/g Stomach [1, 3]: 2.63 ± 0.63 % ID/g
% ID/g Stomach [1, 4]: 0.90 ± 0.17 % ID/g
% ID/g Stomach [1, 5]: 0.45 ± 0.10 % ID/g
% ID/g Stomach [1, 6]: 0.21 ± 0.05 % ID/g
SMILES: NC(CNC(=O)CN1CCN(CC(=O)[O-])CCN(CC(=O)[O-])CCN(CC(=O)[O-])CC1)C(=O)O.[68Ga+3] (stereo not shown) [^68Ga-DOTA-ala]
tumor cell uptake versus control agents (U87MG cells): significantly increase tumor cell uptakes
tumor uptake compared with the control heterocyclic compound (in words) [1]: higher than that of ^68Ga-DOTA at all time point
tumor uptake in PET images [2]: high tumor uptakes

% ID/g Tumor [1, 3]: 2.69 ± 0.19 % ID/g
% ID/g Tumor [1, 4]: 1.28 ± 0.22 % ID/g
% ID/g Tumor [1, 5]: 0.59 ± 0.18 % ID/g
% ID/g Tumor [1, 6]: 0.43 ± 0.06 % ID/g
% ID/g Blood [1, 3]: 7.13 ± 0.77 % ID/g
% ID/g Blood [1, 4]: 2.55 ± 0.31 % ID/g
% ID/g Blood [1, 5]: 0.41 ± 0.24 % ID/g
% ID/g Blood [1, 6]: 0.07 ± 0.00 % ID/g
% ID/g Bone [1, 3]: 1.95 ± 0.06 % ID/g
% ID/g Bone [1, 4]: 0.65 ± 0.16 % ID/g
% ID/g Bone [1, 5]: 0.15 ± 0.09 % ID/g
% ID/g Bone [1, 6]: 0.06 ± 0.07 % ID/g
% ID/g Heart [1, 3]: 1.83 ± 0.16 % ID/g
% ID/g Heart [1, 4]: 0.59 ± 0.07 % ID/g
% ID/g Heart [1, 5]: 0.15 ± 0.10 % ID/g
% ID/g Heart [1, 6]: 0.07 ± 0.07 % ID/g
% ID/g Intestine [1, 3]: 1.52 ± 0.08 % ID/g
% ID/g Intestine [1, 4]: 0.84 ± 0.10 % ID/g
% ID/g Intestine [1, 5]: 0.33 ± 0.14 % ID/g
% ID/g Intestine [1, 6]: 0.47 ± 0.17 % ID/g
% ID/g Kidney [1, 3]: 11.61 ± 0.61 % ID/g
% ID/g Kidney [1, 4]: 7.44 ± 1.29 % ID/g
% ID/g Kidney [1, 5]: 3.56 ± 2.10 % ID/g
% ID/g Kidney [1, 6]: 2.73 ± 0.32 % ID/g
% ID/g Liver [1, 3]: 1.98 ± 0.19 % ID/g
% ID/g Liver [1, 4]: 1.44 ± 0.29 % ID/g
% ID/g Liver [1, 5]: 1.04 ± 0.35 % ID/g
% ID/g Liver [1, 6]: 1.21 ± 0.21 % ID/g
% ID/g Muscle [1, 3]: 1.68 ± 0.86 % ID/g
% ID/g Muscle [1, 4]: 0.77 ± 0.19 % ID/g
% ID/g Muscle [1, 5]: 0.20 ± 0.17 % ID/g
% ID/g Muscle [1, 6]: 0.04 ± 0.01 % ID/g
% ID/g Spleen [1, 3]: 1.41 ± 0.19 % ID/g
% ID/g Spleen [1, 4]: 0.62 ± 0.09 % ID/g
% ID/g Spleen [1, 5]: 0.22 ± 0.09 % ID/g
% ID/g Spleen [1, 6]: 0.19 ± 0.03 % ID/g
% ID/g Stomach [1, 3]: 2.13 ± 0.26 % ID/g
% ID/g Stomach [1, 4]: 0.76 ± 0.31 % ID/g
% ID/g Stomach [1, 5]: 0.20 ± 0.10 % ID/g
% ID/g Stomach [1, 6]: 0.11 ± 0.03 % ID/g
SMILES: O=C([O-])CN1CCN(CC(=O)[O-])CCN(CC(=O)[O-])CC1.[68Ga+3] [^68Ga-NOTA, reference compound]

% ID/g Tumor [1, 3]: 2.87 ± 0.58 % ID/g
% ID/g Tumor [1, 4]: 1.40 ± 0.43 % ID/g
% ID/g Tumor [1, 5]: 0.73 ± 0.25 % ID/g
% ID/g Tumor [1, 6]: 0.61 ± 0.34 % ID/g
tumor uptake compared with the control heterocyclic compound (in words) [1]: higher and increasing by time
tumor uptake relative to that of ^68Ga-NOTA ([1]; at 10 min): 1.07 times
tumor uptake relative to that of ^68Ga-NOTA ([1]; at 30 min): 1.09 times
tumor uptake relative to that of ^68Ga-NOTA ([1]; at 1 hr): 1.24 times
tumor uptake relative to that of ^68Ga-NOTA ([1]; at 2 hr): 1.42 times
% ID/g Blood [1, 3]: 7.46 ± 0.78 % ID/g
% ID/g Blood [1, 4]: 2.69 ± 0.59 % ID/g
% ID/g Blood [1, 5]: 0.73 ± 0.05 % ID/g
% ID/g Blood [1, 6]: 0.15 ± 0.03 % ID/g
% ID/g Bone [1, 3]: 2.22 ± 0.34 % ID/g
% ID/g Bone [1, 4]: 1.05 ± 0.35 % ID/g
% ID/g Bone [1, 5]: 0.47 ± 0.09 % ID/g
% ID/g Bone [1, 6]: 0.10 ± 0.07 % ID/g
% ID/g Heart [1, 3]: 2.13 ± 0.13 % ID/g
% ID/g Heart [1, 4]: 0.71 ± 0.17 % ID/g
% ID/g Heart [1, 5]: 0.26 ± 0.03 % ID/g
% ID/g Heart [1, 6]: 0.10 ± 0.05 % ID/g
% ID/g Intestine [1, 3]: 1.74 ± 0.22 % ID/g
% ID/g Intestine [1, 4]: 0.77 ± 0.19 % ID/g
% ID/g Intestine [1, 5]: 0.44 ± 0.07 % ID/g
% ID/g Intestine [1, 6]: 0.35 ± 0.11 % ID/g
% ID/g Kidney [1, 3]: 20.96 ± 7.35 % ID/g
% ID/g Kidney [1, 4]: 9.07 ± 1.68 % ID/g
% ID/g Kidney [1, 5]: 5.81 ± 0.57 % ID/g
% ID/g Kidney [1, 6]: 4.04 ± 0.63 % ID/g
% ID/g Liver [1, 3]: 2.08 ± 0.25 % ID/g
% ID/g Liver [1, 4]: 1.34 ± 0.22 % ID/g
% ID/g Liver [1, 5]: 1.05 ± 0.04 % ID/g
% ID/g Liver [1, 6]: 0.84 ± 0.18 % ID/g
% ID/g Muscle [1, 3]: 2.29 ± 0.52 % ID/g
% ID/g Muscle [1, 4]: 0.87 ± 0.33 % ID/g
% ID/g Muscle [1, 5]: 0.26 ± 0.05 % ID/g
% ID/g Muscle [1, 6]: 0.06 ± 0.04 % ID/g
% ID/g Spleen [1, 3]: 1.84 ± 0.10 % ID/g
% ID/g Spleen [1, 4]: 0.93 ± 0.14 % ID/g
% ID/g Spleen [1, 5]: 0.55 ± 0.07 % ID/g
% ID/g Spleen [1, 6]: 0.48 ± 0.11 % ID/g
% ID/g Stomach [1, 3]: 2.46 ± 0.31 % ID/g
% ID/g Stomach [1, 4]: 0.79 ± 0.17 % ID/g
% ID/g Stomach [1, 5]: 0.33 ± 0.08 % ID/g
% ID/g Stomach [1, 6]: 0.18 ± 0.05 % ID/g
SMILES: NC(CNC(=O)CN1CCN(CC(=O)[O-])CCN(CC(=O)[O-])CC1)C(=O)[O-].[68Ga+3] (stereo not shown) [^68Ga-NOTA-ala]
tumor cell uptake versus control agents (Hep3B cells): significantly increase tumor cell uptakes
tumor cell uptake versus control agents (U87MG cells): significantly increase tumor cell uptakes
PET image quality [2]: the highest quality image
tumor uptake in PET images [2]: high tumor uptakes

SMILES: NC(CCCCNC(=O)CN1CCN(CC(=O)[O-])CCN(CC(=O)[O-])CC1)C(=O)[O-].[68Ga+3] (stereo not shown) [^68Ga-NOTA-lys]
tumor cell uptake versus control agents (Hep3B cells): significantly increase tumor cell uptakes
